The assay deals with CX3CR1 (Homo sapiens (Human), UniProt P49238). The experiment in a line: hCX3CR1 [3H]-AZD8797 competitive binding assay (filter). The following applies: CHO-hCX3CR1 membranes, 2 nM [3H]-AZD8797. On the procedure: hCX3CR1 [^3H]-AZD8797 Competitive Binding Assay (Filter)
CX3CR1, sequence (P49238 whole entry): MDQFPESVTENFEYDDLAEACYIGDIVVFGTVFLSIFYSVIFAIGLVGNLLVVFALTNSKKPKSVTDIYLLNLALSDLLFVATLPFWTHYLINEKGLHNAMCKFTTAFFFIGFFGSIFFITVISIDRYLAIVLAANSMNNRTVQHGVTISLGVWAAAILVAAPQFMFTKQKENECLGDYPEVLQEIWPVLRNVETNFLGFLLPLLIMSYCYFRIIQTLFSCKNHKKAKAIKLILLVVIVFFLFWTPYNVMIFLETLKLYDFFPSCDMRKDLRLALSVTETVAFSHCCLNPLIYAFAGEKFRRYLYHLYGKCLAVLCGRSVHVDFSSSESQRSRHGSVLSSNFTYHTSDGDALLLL
CHO-hCX3CR1 membranes (9 μg per well) together with 2 nM [^3H]-AZD8797 and different concentrations of competitor compound were incubated in 25 mM HEPES (pH 7.4), 10 mM MgCl2, 1 mM CaCl2) and 0.5% BSA in a Corning polystyrene flat-bottom 96-well plate. The plate was incubated for 2 h at room temperature before free radioligand was separated from bound by vacuum filtration on to a Multiscreen HTS+HiFlow FB (Millipore) filter plate, using a Biomek FX (Beckman Coulter). The filter plate was washed in ice-cold 25 mM HEPES (pH 7.4), 5 mM MgCl2, 1 mM CaCl2) and 500 mM NaCl and dried at 50° C. for 1 h. Scintillation cocktail, Optiphase Supermix (PerkinElmer) was added to each well and the radioactivity was measured using a MicroBeta Trilux reader (PerkinElmer). The DMSO concentration was held constant at 1%.
`CC(C)C[C@H](CO)Nc1nc(CC(C)c2ccc3ocnc3c2)nc(NS(C)(=O)=O)n1` (stereo partly drawn) [Example 62, N-(4-(2-(Benzo[d]oxazol-5-yl)propyl)-6-(((R)-1-hydroxy-4-methylpentan-2-yl)amino)-1,3,5-triazin-2-yl)methanesulfonamide] had a half-maximal inhibitory concentration (IC50) of 140 nM.

Consider `CC(C)C[C@H](CO)Nc1nc(CC(C)c2ccc(N=S(C)(C)=O)cc2)nc(NS(C)(=O)=O)n1` (stereo partly drawn) [Example 63, N-(4-(2-(4-((Dimethyl(oxo)-λ^6-sulfaneylidene)amino)phenyl)propyl)-6-(((R)-1-hydroxy-4-methylpentan-2-yl)amino)-1,3,5-triazin-2-yl)methanesulfonamide], for which the 50% inhibitory concentration (IC50) turned out to be 114 nM.

`CC(C)C[C@H](CO)Nc1nc(CC(C)c2ccc(-n3ccnn3)cc2)nc(NS(C)(=O)=O)n1` (stereo partly drawn) [Example 64, N-(4-(2-(4-(1H-1,2,3-Triazol-1-yl)phenyl)propyl)-6-(((R)-1-hydroxy-4-methylpentan-2-yl)amino)-1,3,5-triazin-2-yl)methanesulfonamide] returned an IC50 of 302 nM.

In the case of `CC(C)C[C@H](CO)Nc1nc(CC(C)c2ccc(C#N)cc2)nc(NS(C)(=O)=O)n1` (stereo partly drawn) [Example 68, N-(4-(2-(4-Cyanophenyl)propyl)-6-(((R)-1-hydroxy-4-methylpentan-2-yl)amino)-1,3,5-triazin-2-yl)methanesulfonamide], the half-inhibitory concentration (IC50) turned out to be 336 nM. This IC50 and that of the compound before are within 1.5-fold of each other.

In turn, `COCc1ccc(C(C)Cc2nc(N[C@@H](CO)CC(C)C)nc(NS(C)(=O)=O)n2)cc1` (stereo partly drawn) [Example 69, N-(4-(((R)-1-Hydroxy-4-methylpentan-2-yl)amino)-6-(2-(4-(methoxymethyl)phenyl)propyl)-1,3,5-triazin-2-yl)methanesulfonamide] gave an IC50 of 830 nM.

In turn, `Cc1ccc(C(C)Cc2nc(N[C@@H](CO)CC(C)C)nc(NS(C)(=O)=O)n2)cc1C` (stereo partly drawn) [Example 70, N-(4-(2-(3,4-Dimethylphenyl)propyl)-6-(((R)-1-hydroxy-4-methylpentan-2-yl)amino)-1,3,5-triazin-2-yl)methanesulfonamide] yielded a half-inhibitory concentration (IC50) of 298 nM.

`CC(C)C[C@H](CO)Nc1nc(CC(C)c2ccc(C(C)(F)F)cc2)nc(NS(C)(=O)=O)n1` (stereo partly drawn) [Example 71, N-(4-(2-(4-(1,1-Difluoroethyl)phenyl)propyl)-6-(((R)-1-hydroxy-4-methylpentan-2-yl)amino)-1,3,5-triazin-2-yl)methanesulfonamide] had a concentration for half-maximal inhibition (IC50) of 331 nM.

In turn, `CC(C)C[C@H](CO)Nc1nc(CC(C)c2cccc(Cl)c2)nc(NS(C)(=O)=O)n1` (stereo partly drawn) [Example 72, N-(4-(2-(3-Chlorophenyl)propyl)-6-(((R)-1-hydroxy-4-methylpentan-2-yl)amino)-1,3,5-triazin-2-yl)methanesulfonamide] gave an IC50 of 340 nM.

Compound `CC(=O)N(C)c1ccc(C(C)Cc2nc(N[C@@H](CO)CC(C)C)nc(NS(C)(=O)=O)n2)cc1` (stereo partly drawn) [Example 73, N-(4-(1-(4-(((R)-1-Hydroxy-4-methylpentan-2-yl)amino)-6-(methylsulfonamido)-1,3,5-triazin-2-yl)propan-2-yl)phenyl)-N-methylacetamide] showed an IC50 of 633 nM.

As to `CC(C)C[C@H](CO)Nc1nc(CC(C)c2ccc(C(F)(F)F)cc2)nc(NS(C)(=O)=O)n1` (stereo partly drawn) [Example 74, N-(4-(((R)-1-Hydroxy-4-methylpentan-2-yl)amino)-6-(2-(4-(trifluoromethyl)phenyl)propyl)-1,3,5-triazin-2-yl)methanesulfonamide], the IC50 amounted to 925 nM. The IC50 values of the last two compounds are within 1.5-fold of each other.

In turn, `COc1cccc(C(C)Cc2nc(N[C@@H](CO)CC(C)C)nc(NS(C)(=O)=O)n2)c1` (stereo partly drawn) [Example 92, N-(4-(((R)-1-Hydroxy-4-methylpentan-2-yl)amino)-6-(2-(3-methoxyphenyl)propyl)-1,3,5-triazin-2-yl)methanesulfonamide] returned an IC50 of 112 nM.

`CC(C)C[C@H](CO)Nc1nc(CC(C)c2c[nH]c3ncccc23)nc(NS(C)(=O)=O)n1` (stereo partly drawn) [Example 93, N-(4-(2-(1H-Pyrrolo[2,3-b]pyridin-3-yl)propyl)-6-(((R)-1-hydroxy-4-methylpentan-2-yl)amino)-1,3,5-triazin-2-yl)methanesulfonamide] showed a half-inhibitory concentration (IC50) of 209 nM. This IC50 lies about 1.9-fold higher than the previous one.

On to `Cc1cc(C(C)Cc2nc(N[C@@H](CO)CC(C)C)nc(NS(C)(=O)=O)n2)ccn1` (stereo partly drawn) [Example 94, N-(4-(((R)-1-Hydroxy-4-methylpentan-2-yl)amino)-6-(2-(2-methylpyridin-4-yl)propyl)-1,3,5-triazin-2-yl)methanesulfonamide], for which the IC50 was found to be 102 nM.

Compound `CC(C)C[C@H](CO)Nc1nc(CC(C)c2ccc(CN3CCOCC3)cc2)nc(NS(C)(=O)=O)n1` (stereo partly drawn) [Example 95, N-(4-(((R)-1-Hydroxy-4-methylpentan-2-yl)amino)-6-(2-(4-(morpholinomethyl)phenyl)propyl)-1,3,5-triazin-2-yl)methanesulfonamide] had an IC50 of 657 nM.

For the compound `COc1ccc(C(C)Cc2nc(N[C@@H](CO)CC(C)C)nc(NS(C)(=O)=O)n2)cc1OC` (stereo partly shown) [Example 96], the concentration for half-maximal inhibition (IC50) stood at 149 nM.

For `COc1ccc(C(C)Cc2nc(N[C@@H](CO)CC(C)C)nc(NS(C)(=O)=O)n2)c2cccnc12` (stereo partly drawn) [Example 97, N-(4-(((R)-1-Hydroxy-4-methylpentan-2-yl)amino)-6-(2-(8-methoxyquinolin-5-yl)propyl)-1,3,5-triazin-2-yl)methanesulfonamide], the IC50 was 90 nM.

In turn, `CCOc1ccc(C(C)Cc2nc(N[C@@H](CO)CC(C)C)nc(NS(C)(=O)=O)n2)cc1Cl` (stereo partly drawn) [Example 98, N-(4-(2-(3-Chloro-4-ethoxyphenyl)propyl)-6-(((R)-1-hydroxy-4-methylpentan-2-yl)amino)-1,3,5-triazin-2-yl)methanesulfonamide] registered an IC50 of 427 nM.

Take `COc1cccc(C(C)Cc2nc(N[C@@H](CO)CC(C)C)nc(NS(C)(=O)=O)n2)c1F` (stereo partly drawn) [Example 99, N-(4-(2-(2-Fluoro-3-methoxyphenyl)propyl)-6-(((R)-1-hydroxy-4-methylpentan-2-yl)amino)-1,3,5-triazin-2-yl)methanesulfonamide]: the IC50 is 77 nM. Against the preceding compound, the IC50 is about 5.5-fold lower.

For the compound `CC(C)C[C@H](CO)Nc1nc(CC(C)c2ccc3c(c2)oc(=O)n3C)nc(NS(C)(=O)=O)n1` (stereo partly drawn) [Example 100, N-(4-(((R)-1-Hydroxy-4-methylpentan-2-yl)amino)-6-(2-(3-methyl-2-oxo-2,3-dihydrobenzo[d]oxazol-6-yl)propyl)-1,3,5-triazin-2-yl)methanesulfonamide], the half-maximal inhibitory concentration (IC50) turned out to be 160 nM.

In turn, `CC(C)C[C@H](CO)Nc1nc(CC(C)c2cccc(CN3OCCC3=O)c2)nc(NS(C)(=O)=O)n1` (stereo partly drawn) [Example 101, N-(4-(((R)-1-Hydroxy-4-methylpentan-2-yl)amino)-6-(2-(3-((3-oxoisoxazolidin-2-yl)methyl)phenyl)propyl)-1,3,5-triazin-2-yl)methanesulfonamide] registered an IC50 of 542 nM. This IC50 is about 3.4-fold higher than that of the compound before.

As to `CC(C)C[C@H](CO)Nc1nc(CC(C)c2ccc(C3CCOCC3)cc2)nc(NS(C)(=O)=O)n1` (stereo partly drawn) [Example 102, N-(4-(((R)-1-Hydroxy-4-methylpentan-2-yl)amino)-6-(2-(4-(tetrahydro-2H-pyran-4-yl)phenyl)propyl)-1,3,5-triazin-2-yl)methanesulfonamide], the IC50 is 88 nM. This IC50 lies about 6.2-fold lower than the previous one.

`CC(C)C[C@H](CO)Nc1nc(CC(C)c2cccc3cccnc23)nc(NS(C)(=O)=O)n1` (stereo partly drawn) [Example 103, N-(4-(((R)-1-Hydroxy-4-methylpentan-2-yl)amino)-6-(2-(quinolin-8-yl)propyl)-1,3,5-triazin-2-yl)methanesulfonamide] had an IC50 of 17 nM.

A word on the IC50: it is the concentration at which inhibition is half-maximal. Low values mean greater potency, high ones weaker potency.

Source of the values: patent US20240199558A1, “2,4,6-TRISUBSTITUTED 1,3,5-TRIAZINES AS MODULATORS OF CX3CR1” (ASTRAZENECA AB, priority 2022, published 2024).
